Measurements reported in US6313153A, “Compositions and methods for treating nephritis and inhibiting TGF -β related conditions using pyridylacrylamide derivatives” (Tsumura & Co., priority 1997, dated 2001).
Counter-ions that a name gives are not always drawn.

What was measured:
anti-GBM nephritic mice = test: anti-GBM nephritic mice: proteinuria, serum cholesterol, blood urea nitrogen and serum creatinine; format: in vivo, BALB/c mice; conditions: for Total Evaluation: 3 × (number of + in proteinuria) + (number of + in serum parameter); for Proteinuria 5th day: 5th day from intravenous injection of anti-GBM serum; for Proteinuria 5th day / Proteinuria 10th day / Serum Parameter BUN (blood urea nitrogen) / Serum Parameter S-Ch (serum cholesterol) / Serum Parameter S-Cr (serum creatinine): oral; for Proteinuria 10th day: 10th day from intravenous injection of anti-GBM serum; for Serum Parameter BUN (blood urea nitrogen) / Serum Parameter S-Ch (serum cholesterol) / Serum Parameter S-Cr (serum creatinine): 11th day;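 on Proteinuria 10th day: minus not effective plus trend double p<0.05 triple p<0.01 quadruple p<0.001 improvement vs control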;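 on Proteinuria 5th day: minus not effective plus trend double p<0.05 triple p<0.01 quadruple p<0.001 improvement vs control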;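 on Serum Parameter BUN (blood urea nitrogen): minus not effective plus trend double p<0.05 triple p<0.01 quadruple p<0.001 improvement vs control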;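 on Serum Parameter S-Ch (serum cholesterol): minus not effective plus trend double p<0.05 triple p<0.01 quadruple p<0.001 improvement vs control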
Protocol: BALB/c mice (5 weeks old, purchased from Nippon Charles Liver) were quarantined and adapted for about 1 week before subjecting to experiments. These mice were divided into several groups for the experiments so that average body weights and standard deviations were almost identical in all groups. Mouse anti-GBM (glomerular basement membrane) nephritis was caused by immunizing the mice with rabbit γ-globulin (1 mg) with Freund's complete adjuvant and intravenously injecting rabbit anti-mouse GBM serum on the fifth day from the immunization. Each compound tested was forcedly orally administered via an oral sonde almost simultaneously with the intravenous injection of the anti-GBM serum. On the 5th and 10th days from the intravenous injection, urine was taken by a plastic metabolic cage and proteinuria was measured (Ohtsuka Tonein TP2). On the 11th day, blood was taken by cutting the carotid and serum cholesterol (S--Ch), blood urea nitrogen (BUN) and serum creatinine (S--Cr) were measured by Toshiba TBA-380 autoanalyzer.

total TGF-β1 = test: production of total TGF-β1 in glomeruli isolated from nephritic mice (ELISA); format: cell-based, BALB/c male mice; conditions: Mus musculus, 10^-6 M, 48 hours, supernatant acid treated, read-out: Inhibition rate (%) of production of total TGF-β1
Protocol: BALB/c male mice were adapted in a feeding chamber for 1 week before subjecting to experiments. Nephritis was induced by subcutaneously injecting an emulsion of rabbit γ-globulin and Freund's complete adjuvant on the back in a dose amount of 1.0 mg per mouse and, after 5 days (on the zeroth day), intravenously injecting rabbit anti-mouse GBM serum in a dose amount of 0.1 ml per mouse. After 1 day from the injection of anti-serum, the glomeruli were isolated through sieves with different sizes and washed twice. Each compound to be tested (10^-6 M) was added while the solvent was added to the control groups. The glomeruli were incubated in RPMI-1640 serum-free medium for 48 hours. The amount of production of active TGF-β1 was determined by measuring the supernatant itself after the incubation for 48 hours in ELSA method. Further, the supernatant was treated with hydrochloric acid and the pH was returned with sodium hydroxide. The total amount of TGF-β1 produced in the supernatant was measured in ELISA method. The protein concentration in the medium was also measured as glomeruli protein concentration. The inhibition rate was calculated by the following equation.
Inhibition rate (%)=100×(value of control group-value of sample)/(value of control group)

Structure (SMILES): COc1ccc(CCN(C)C(=O)/C(C#N)=C/c2cccnc2)cc1OC [Compound 2]
- Total Evaluation (anti-GBM nephritic mice): 13
- Proteinuria 5th day (anti-GBM nephritic mice): +
- Proteinuria 10th day (anti-GBM nephritic mice): +++
- Serum Parameter BUN (blood urea nitrogen) (anti-GBM nephritic mice): -
- Serum Parameter S-Ch (serum cholesterol) (anti-GBM nephritic mice): -
- Serum Parameter S-Cr (serum creatinine) (anti-GBM nephritic mice): +
- inhibition at 1 µM (total TGF-β1): 56.7%

Structure (SMILES): CCN(CCc1ccc(OC)c(OC)c1)C(=O)/C=C/c1cccnc1 [Compound 12]
- Total Evaluation (anti-GBM nephritic mice): 8
- Proteinuria 5th day (anti-GBM nephritic mice): -
- Proteinuria 10th day (anti-GBM nephritic mice): +
- Serum Parameter BUN (blood urea nitrogen) (anti-GBM nephritic mice): +
- Serum Parameter S-Ch (serum cholesterol) (anti-GBM nephritic mice): +
- Serum Parameter S-Cr (serum creatinine) (anti-GBM nephritic mice): +++
- inhibition at 1 µM (total TGF-β1): 37.8%

Structure (SMILES): COc1ccc(CCN(C)C(=O)/C=C/c2cncc(Cl)c2)cc1OC [Compound 29]
- Total Evaluation (anti-GBM nephritic mice): 16
- Proteinuria 5th day (anti-GBM nephritic mice): ++
- Proteinuria 10th day (anti-GBM nephritic mice): ++
- Serum Parameter BUN (blood urea nitrogen) (anti-GBM nephritic mice): +
- Serum Parameter S-Ch (serum cholesterol) (anti-GBM nephritic mice): ++
- Serum Parameter S-Cr (serum creatinine) (anti-GBM nephritic mice): +
- inhibition at 1 µM (total TGF-β1): 32.6%

Structure (SMILES): COC(=O)c1cncc(/C=C/C(=O)N(C)CCc2ccc(OC)c(OC)c2)c1 [Compound 33]
- Total Evaluation (anti-GBM nephritic mice): 7
- Proteinuria 5th day (anti-GBM nephritic mice): ++
- Proteinuria 10th day (anti-GBM nephritic mice): ++
- Serum Parameter BUN (blood urea nitrogen) (anti-GBM nephritic mice): -
- Serum Parameter S-Ch (serum cholesterol) (anti-GBM nephritic mice): ++
- Serum Parameter S-Cr (serum creatinine) (anti-GBM nephritic mice): +
- inhibition at 1 µM (total TGF-β1): 49.8%

Structure (SMILES): COc1ccc(CCN(C)C(=O)/C=C/c2cccnc2)cc1 [Compound 49]
- Total Evaluation (anti-GBM nephritic mice): 7
- Proteinuria 5th day (anti-GBM nephritic mice): -
- Proteinuria 10th day (anti-GBM nephritic mice): +
- Serum Parameter BUN (blood urea nitrogen) (anti-GBM nephritic mice): +
- Serum Parameter S-Ch (serum cholesterol) (anti-GBM nephritic mice): +
- Serum Parameter S-Cr (serum creatinine) (anti-GBM nephritic mice): ++
- inhibition at 1 µM (total TGF-β1): 59%

Structure (SMILES): COc1ccc(CCN(C)C(=O)/C=C/c2cccnc2)cc1O [Compound 51]
- inhibition at 1 µM (total TGF-β1): 56.8%

Structure (SMILES): COc1ccc(CCNC(=O)/C=C/c2cccnc2)cc1OC [Compound 55]
- Total Evaluation (anti-GBM nephritic mice): 17
- Proteinuria 5th day (anti-GBM nephritic mice): +
- Proteinuria 10th day (anti-GBM nephritic mice): +++
- Serum Parameter BUN (blood urea nitrogen) (anti-GBM nephritic mice): ++
- Serum Parameter S-Ch (serum cholesterol) (anti-GBM nephritic mice): +++
- Serum Parameter S-Cr (serum creatinine) (anti-GBM nephritic mice): -
- inhibition at 1 µM (total TGF-β1): 75.7%

Structure (SMILES): COc1ccc(CCN(C)C(=O)/C(C)=C/c2cccnc2)cc1OC [Compound 62]
- Total Evaluation (anti-GBM nephritic mice): 14
- Proteinuria 5th day (anti-GBM nephritic mice): -
- Proteinuria 10th day (anti-GBM nephritic mice): +++
- Serum Parameter BUN (blood urea nitrogen) (anti-GBM nephritic mice): ++
- Serum Parameter S-Ch (serum cholesterol) (anti-GBM nephritic mice): +++
- Serum Parameter S-Cr (serum creatinine) (anti-GBM nephritic mice): +
- inhibition at 1 µM (total TGF-β1): 31.9%

Structure (SMILES): O=C(/C=C/c1cccnc1)NCCc1cccc(OCC(=O)NC2CCCC2)c1 [Compound 116]
- Total Evaluation (anti-GBM nephritic mice): 10
- Proteinuria 5th day (anti-GBM nephritic mice): +
- Proteinuria 10th day (anti-GBM nephritic mice): +
- Serum Parameter BUN (blood urea nitrogen) (anti-GBM nephritic mice): ++
- Serum Parameter S-Ch (serum cholesterol) (anti-GBM nephritic mice): +
- Serum Parameter S-Cr (serum creatinine) (anti-GBM nephritic mice): +

Structure (SMILES): O=C(/C=C/c1cccnc1)NCCc1cccc(OCC(=O)NO)c1 [Compound 120]
- inhibition at 1 µM (total TGF-β1): 56.9%

Structure (SMILES): CCNC(=O)Oc1cccc(CCNC(=O)/C=C/c2cccnc2)c1 [Compound 127, (E)-N-[3-[(ethylcarbamoyl)oxy]-phenethyl]-3-(3-pyridyl)-2-propenoic acid amide]
- Total Evaluation (anti-GBM nephritic mice): 17
- Proteinuria 5th day (anti-GBM nephritic mice): +++
- Proteinuria 10th day (anti-GBM nephritic mice): ++
- Serum Parameter BUN (blood urea nitrogen) (anti-GBM nephritic mice): -
- Serum Parameter S-Ch (serum cholesterol) (anti-GBM nephritic mice): ++
- Serum Parameter S-Cr (serum creatinine) (anti-GBM nephritic mice): -

Structure (SMILES): CCNC(=O)Oc1ccc(CCN(C)C(=O)/C=C/c2cccnc2)cc1OC(=O)NCC [Compound 133]
- Total Evaluation (anti-GBM nephritic mice): 9
- Proteinuria 5th day (anti-GBM nephritic mice): +
- Proteinuria 10th day (anti-GBM nephritic mice): +
- Serum Parameter BUN (blood urea nitrogen) (anti-GBM nephritic mice): +
- Serum Parameter S-Ch (serum cholesterol) (anti-GBM nephritic mice): +
- Serum Parameter S-Cr (serum creatinine) (anti-GBM nephritic mice): +

Structure (SMILES): COc1ccc(CCN(C)C(=S)/C=C/c2cccnc2)cc1OC [Compound 135, (E)-N-(3,4-dimethoxyphenethyl)-N-methyl-3-(3-pyridyl)-2-propenoic acid thioamide hydrochloride]
- Total Evaluation (anti-GBM nephritic mice): 6
- Proteinuria 5th day (anti-GBM nephritic mice): -
- Proteinuria 10th day (anti-GBM nephritic mice): +
- Serum Parameter BUN (blood urea nitrogen) (anti-GBM nephritic mice): +
- Serum Parameter S-Ch (serum cholesterol) (anti-GBM nephritic mice): +
- Serum Parameter S-Cr (serum creatinine) (anti-GBM nephritic mice): +
- inhibition at 1 µM (total TGF-β1): 47.1%

Structure (SMILES): COc1ccc(CCN(C)C(=O)/C=C/c2cccnc2)cc1OC [Compound 140]
- Total Evaluation (anti-GBM nephritic mice): 14
- Proteinuria 5th day (anti-GBM nephritic mice): +
- Proteinuria 10th day (anti-GBM nephritic mice): ++
- Serum Parameter BUN (blood urea nitrogen) (anti-GBM nephritic mice): ++
- Serum Parameter S-Ch (serum cholesterol) (anti-GBM nephritic mice): ++
- Serum Parameter S-Cr (serum creatinine) (anti-GBM nephritic mice): +

Structure (SMILES): O=C(O)COc1ccc(CCNC(=O)/C=C/c2cccnc2)cc1 [Compound 149]
- inhibition at 1 µM (total TGF-β1): 35.9%

Structure (SMILES): O=C(O)COc1cccc(CCNC(=S)/C=C/c2cccnc2)c1 [Compound 151]
- inhibition at 1 µM (total TGF-β1): 19.1%

Structure (SMILES): COc1ccc(CCN(C)C(=O)/C=C/c2ccccn2)cc1OC [Compound 153]
- inhibition at 1 µM (total TGF-β1): 31%

Structure (SMILES): COc1ccc(CCN(C)C(=O)/C=C/c2ccncc2)cc1OC [Compound 154]
- inhibition at 1 µM (total TGF-β1): 53.4%

Structure (SMILES): COc1ccc(C(=O)CN(C)C(=O)/C=C/c2cccnc2)cc1OC [Compound 155, (E) -N-[2-(3,4-dimethoxyphenyl)-2-oxoethyl]-N-methyl-3-(3-pyridyl)-2-propenoicacid amide]
- Total Evaluation (anti-GBM nephritic mice): 28
- Proteinuria 5th day (anti-GBM nephritic mice): ++++
- Proteinuria 10th day (anti-GBM nephritic mice): ++++
- Serum Parameter BUN (blood urea nitrogen) (anti-GBM nephritic mice): +
- Serum Parameter S-Ch (serum cholesterol) (anti-GBM nephritic mice): +++
- Serum Parameter S-Cr (serum creatinine) (anti-GBM nephritic mice): -

Structure (SMILES): COc1ccc(C(CN(C)C(=O)/C=C/c2cccnc2)=NO)cc1OC [Compound 156, (E)-N-[2-(3,4-dimethoxyphenyl)-2-(hydroxyimino)ethyl]-N-methyl-3-(3-pyridyl)-2-propenoic acid amide]
- Total Evaluation (anti-GBM nephritic mice): 7
- Proteinuria 5th day (anti-GBM nephritic mice): +
- Proteinuria 10th day (anti-GBM nephritic mice): +
- Serum Parameter BUN (blood urea nitrogen) (anti-GBM nephritic mice): -
- Serum Parameter S-Ch (serum cholesterol) (anti-GBM nephritic mice): +
- Serum Parameter S-Cr (serum creatinine) (anti-GBM nephritic mice): -

Structure (SMILES): COc1cc(C(O)CN(C)C(=O)/C=C/c2cccnc2)ccc1O (centres unmarked) [Compound 158, (E)-N-[2-hydroxy-2-(3-methoxy-4-hydroxyphenyl)ethyl]-N-methyl-3-(3-pyridyl)-2-propenoic acid amide]
- Total Evaluation (anti-GBM nephritic mice): 7
- Proteinuria 5th day (anti-GBM nephritic mice): +
- Proteinuria 10th day (anti-GBM nephritic mice): +
- Serum Parameter BUN (blood urea nitrogen) (anti-GBM nephritic mice): -
- Serum Parameter S-Ch (serum cholesterol) (anti-GBM nephritic mice): +
- Serum Parameter S-Cr (serum creatinine) (anti-GBM nephritic mice): -

Structure (SMILES): CCOC(=O)COc1cccc(C(O)CNC(=O)/C=C/c2cccnc2)c1 (centres unmarked) [Compound 159, ethyl [3-[1-hydroxy-2-((E) -3-(3-pyridyl)acryloylamino]ethyl]phenoxy]acetate]
- Total Evaluation (anti-GBM nephritic mice): 10
- Proteinuria 5th day (anti-GBM nephritic mice): ++
- Proteinuria 10th day (anti-GBM nephritic mice): +
- Serum Parameter BUN (blood urea nitrogen) (anti-GBM nephritic mice): -
- Serum Parameter S-Ch (serum cholesterol) (anti-GBM nephritic mice): +
- Serum Parameter S-Cr (serum creatinine) (anti-GBM nephritic mice): -

Structure (SMILES): O=C(/C=C/c1cccnc1)NCC(=O)c1cccc(O)c1 [Compound 160, (E)-N-(3-hydroxyphenacyl)-3-(3-pyridyl)-2-propenoic acid amide]
- Total Evaluation (anti-GBM nephritic mice): 14
- Proteinuria 5th day (anti-GBM nephritic mice): +++
- Proteinuria 10th day (anti-GBM nephritic mice): +
- Serum Parameter BUN (blood urea nitrogen) (anti-GBM nephritic mice): -
- Serum Parameter S-Ch (serum cholesterol) (anti-GBM nephritic mice): ++
- Serum Parameter S-Cr (serum creatinine) (anti-GBM nephritic mice): -

Structure (SMILES): CCOC(=O)COc1cccc(C(=O)CNC(=O)/C=C/c2cccnc2)c1 [Compound 161]
- Total Evaluation (anti-GBM nephritic mice): 10
- Proteinuria 5th day (anti-GBM nephritic mice): ++
- Proteinuria 10th day (anti-GBM nephritic mice): +
- Serum Parameter BUN (blood urea nitrogen) (anti-GBM nephritic mice): -
- Serum Parameter S-Ch (serum cholesterol) (anti-GBM nephritic mice): +
- Serum Parameter S-Cr (serum creatinine) (anti-GBM nephritic mice): -

Structure (SMILES): COc1cc(C(=O)CN(C)C(=O)/C=C/c2cccnc2)ccc1O [Compound 162, (E)-N-methyl-N-(3-methoxy-4-hydroxyphenacyl)-3-(3-pyridyl)-2-propenoic acid amide]
- Total Evaluation (anti-GBM nephritic mice): 13
- Proteinuria 5th day (anti-GBM nephritic mice): +++
- Proteinuria 10th day (anti-GBM nephritic mice): +
- Serum Parameter BUN (blood urea nitrogen) (anti-GBM nephritic mice): -
- Serum Parameter S-Ch (serum cholesterol) (anti-GBM nephritic mice): +
- Serum Parameter S-Cr (serum creatinine) (anti-GBM nephritic mice): -

Structure (SMILES): COc1ccc(C(=O)CN(C)C(=S)/C=C/c2cccnc2)cc1OC [Compound 165, (E)-N-[2-(3,4-dimethoxyphenyl)-2-oxoethyl]-N-methyl-3-(3-pyridyl)-2-propenoic acid thioamide]
- Total Evaluation (anti-GBM nephritic mice): 22
- Proteinuria 5th day (anti-GBM nephritic mice): +++
- Proteinuria 10th day (anti-GBM nephritic mice): +++
- Serum Parameter BUN (blood urea nitrogen) (anti-GBM nephritic mice): +
- Serum Parameter S-Ch (serum cholesterol) (anti-GBM nephritic mice): +++
- Serum Parameter S-Cr (serum creatinine) (anti-GBM nephritic mice): -
